Experiments:
[1] = tested on: damping-off fungus (Rhizoctonia solani); experiment: Test Example 16: soybean seed smearing treatment, damping-off pot test (Table 5); type: in vivo; settings: soybean seeds, 20 days after
Method: (§1) If the effect by the combination of two active ingredients is greater than that of the estimated value E, which is calculated by the Colby's equation as follows, the effect is regarded as synergistic. E=X+Y−X·Y/100 wherein, E=Control value when using the mixture of the active ingredients A and B at the concentrations m and n (amount of the active ingredient), respectively.
(§2) X=Control value when using the active ingredient A at the concentration m (amount of the active ingredient).
(§3) Y=Control value when using the active ingredient B at the concentration n (amount of the active ingredient).
In a rotary seed treatment machine (trade name: HEGE11, manufactured by WINTERSTEIGER), soybean seeds (variety:“Hatayutaka”) were treated by smearing treatment using azoxystrobin flowable formulation (25% flowable formulation, trade name: Amistar, Syngenta), trifloxystrobin flowable formulation (25% flowable formulation, trade name: FLINT, Bayer CropScience), a chemical liquid prepared by diluting picoxystrobin in acetone/Tween 20 (weight ratio=95:5) and diluting with water, a chemical liquid prepared by dissolving mandestrobin in acetone/Tween 20 (weight ratio=95:5) and diluting with water, and the flowable formulation obtained of the present bacterial strain in Formulation Example 16, so that the soybean seeds retain the bacteria and the compound in the amount shown in Table 5.
Cultivation was carried out in a greenhouse under irrigation. Also, similar procedures were conducted using untreated soybean seeds, instead of the treated soybean seeds, as described above for the treated compartment (“untreated compartment”). The plants were investigated 20 days after for the number of diseased plants, and the disease incidence was calculated by the following “Equation 1”. The control value of the treated compartment was calculated by the following equation “Equation 2”, based on the disease incidences of the treated compartment and the untreated compartment. Disease incidence (%)=100×(number of diseased plant/total number of seeded seeds): Equation 1 Control value (%)=100×[(disease incidence in untreated compartment−disease incidence in treated compartment)/disease incidence in untreated compartment]: Equation 2

[2] = tested on: damping-off fungus (Fusarium spp.); experiment: Test Example 15: corn seed smearing treatment, damping-off pot test (Table 4); type: in vivo; settings: corn seeds, 20 days after
Method: In a rotary seed treatment machine (trade name: HEGE11, manufactured by WINTERSTEIGER), corn seeds (variety: yellow dent corn) were treated by smearing treatment using pyraclostrobin flowable formulation (20% wettable granules, trade name: Comet, BASF. Corporation), a chemical liquid prepared by dissolving fluoxastrobin in acetone/Tween 20 (weight ratio=95:5) and diluting with water, and the flowable formulation of the present bacterial strain obtained in Formulation Example 16, respectively, so that the corn seeds retain the present bacterial strain and the compound in the amount shown in Table 4.
Cultivation was carried out in a greenhouse under irrigation. Also, similar procedures were conducted using untreated corn seeds, instead of the treated corn seeds, as described above for the treated compartment (“untreated compartment”). The plants were investigated 20 days after for the number of diseased plants, and the disease incidence was calculated by the following “Equation 1”. The control value of the treated compartment was calculated by the following equation “Equation 2”, based on the disease incidences of the treated compartment and the untreated compartment. Disease incidence (%)=100×(number of diseased plant/total number of seeded seeds): Equation 1 Control value (%)=100×[(disease incidence in […] in treated compartment)/disease incidence in untreated compartment]: Equation 2
as §1, §2, §3

SMILES | Controlling Effect (control value) ([1]; 0.01 g/Kg seeds) [%] | Controlling Effect (control value) ([2]; 0.05 g/Kg seeds) [%] | Controlling Effect (control value) ([2]; 0.1 g/Kg seeds) [%] | Controlling Effect (control value) ([1]; 0.05 g/Kg seeds) [%] | Controlling Effect (control value) ([1]; 0.002 g/Kg seeds) [%] | other results
CO/C=C(/C(=O)OC)c1ccccc1Oc1cc(Oc2ccccc2C#N)ncn1 [Azoxystrobin] | 29.5 | – | – | – | – | Controlling Effect (control value) ([1]; 0.005 g/Kg seeds): 15.9%; Controlling Effect (control value) ([1]; 0.02 g/Kg seeds): 38.6%
CO/N=C(/C1=NOCCO1)c1ccccc1Oc1ncnc(Oc2ccccc2Cl)c1F [Fluoxastrobin] | – | 14.0 | 30.2 | – | – | Controlling Effect (control value) ([2]; 0.2 g/Kg seeds): 41.9%
CNC(=O)C(OC)c1ccccc1COc1cc(C)ccc1C (stereo not drawn) [Mandestrobin] | – | – | – | 36.4 | – | Controlling Effect (control value) ([1]; 0.025 g/Kg seeds): 25.0%; Controlling Effect (control value) ([1]; 0.1 g/Kg seeds): 47.7%
CO/C=C(/C(=O)OC)c1ccccc1COc1cccc(C(F)(F)F)n1 [Picoxystrobin] | 27.3 | – | – | 38.6 | 18.2 | –
COC(=O)N(OC)c1ccccc1COc1ccn(-c2ccc(Cl)cc2)n1 [Pyraclostrobin] | – | 25.6 | 37.2 | – | – | Controlling Effect (control value) ([2]; 0.025 g/Kg seeds): 18.6%
CON=C(C(=O)OC)c1ccccc1CON=C(C)c1cccc(C(F)(F)F)c1 [Trifloxystrobin] | 31.8 | – | – | 40.9 | 20.5 | –
